{"source": "paper PMC4201869", "about": "(Neuroendocrinology, 2014)", "key": {"[1]": {"test_system": "GnRH neurons", "test": "Current-voltage", "assay_type": "cell-based, rat", "settings": "100 nM Kp-10, compared to control; representative recording (Figure 5B)"}, "[2]": {"test_system": "GnRH neurons", "settings": "adult male mouse; cited from earlier work"}, "[3]": {"test_system": "GnRH neurons", "test": "Spontaneous action potential firing, current clamp, slices from female rats", "assay_type": "cell-based, rat", "settings": "7-10 min after addition"}, "[4]": {"test_system": "GnRH neurons", "settings": "mice and guinea pigs; cited from earlier work"}, "[5]": {"test_system": "GnRH neurons"}, "[6]": {"molecular_target": "Kiss1R (Homo sapiens) (UniProt Q969F8)", "sequence (Q969F8 whole entry)": "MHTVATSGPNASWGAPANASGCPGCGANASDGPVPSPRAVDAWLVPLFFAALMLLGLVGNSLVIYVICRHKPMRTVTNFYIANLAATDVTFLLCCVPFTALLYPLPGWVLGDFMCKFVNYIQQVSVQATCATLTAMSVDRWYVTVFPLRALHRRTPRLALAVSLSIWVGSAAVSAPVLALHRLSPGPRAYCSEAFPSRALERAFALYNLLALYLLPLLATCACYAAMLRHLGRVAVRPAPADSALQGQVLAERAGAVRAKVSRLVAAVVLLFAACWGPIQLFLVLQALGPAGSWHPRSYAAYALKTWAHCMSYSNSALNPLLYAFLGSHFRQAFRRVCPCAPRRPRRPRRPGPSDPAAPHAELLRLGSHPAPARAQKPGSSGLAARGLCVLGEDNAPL", "settings": "cited from earlier work"}, "[7]": {"test_system": "GnRH neurons", "assay_type": "cell-based, rat"}}, "note": "pKd: −log10 of the molar value. Where “and” joins values, the source holds several entries; their conditions need not be identical. Identical values can stand only once. Where no end group is shown, it is not given here.", "data": [{"substance": "YNWNSFGLRY-NH2 [Kp-10, Mouse KiSS-1 (110–119)-NH2]", "values": [{"measurement": "reversal potential of kisspeptin-induced current", "setting": "[1]", "result": "−110", "unit": "mV"}, {"measurement": "GnRH neurons activated by kisspeptin", "setting": "[2]", "result": "about 90%"}, {"measurement": "effect on action potential firing, in words", "setting": "[3]", "result": "stimulated the cell"}, {"measurement": "reversal potential of kisspeptin-induced currents", "setting": "[4]", "result": "−100 to −110", "unit": "mV"}, {"measurement": "depolarization by submaximal dose", "setting": "[5]; 10 nM Kp-10, TTX, mean ± SEM", "result": "14.6 ± 2.3", "unit": "mV"}, {"measurement": "maximum depolarization", "setting": "[5]; 100 nM Kp-10, TTX, mean ± SEM", "result": "20.2 ± 1.2", "unit": "mV"}, {"measurement": "depolarization, in words", "setting": "[5]; current clamp, TTX 1.0 μM, female rats", "result": "very prolonged, concentration-dependent depolarization of GnRH neurons that persisted long after washout of the agonist"}, {"measurement": "cells responding to kisspeptin", "setting": "[5]; female rats, current clamp, TTX", "result": "Approximately 90%"}]}, {"substance": "Kp-10 (from UniProt Q15726)", "values": [{"measurement": "pKd", "setting": "[6]", "result": 8.57}]}, {"substance": "CART: Cocaine and Amphetamine Regulated Transcript (55–102, rat), American Peptide Company, excitatory neuropeptide (IPIYEKKYGQVPMCDAGEQCAVRKGARIGKLCDCPRGTSCNSFLLKCL; ends and bridges not checked; cysteine pairing not given here; UniProt P49192 82-129, looked up, fragment)", "values": [{"measurement": "CART-induced firing and depolarization, in words", "setting": "[7]", "result": "persisted long after washout"}, {"measurement": "GnRH neurons responding to CART", "setting": "[7]; 30 nM CART, 8 out of 12 cells from 5 animals, without TTX", "result": "60–70%"}, {"measurement": "membrane depolarization by CART alone under TTX", "setting": "[7]; 30 nM CART, TTX, n = 12 cells from 6 animals, mean ± SEM", "result": "7.3 ± 0.6 mV and 7.3 ± 0.64 mV"}, {"measurement": "membrane depolarization by CART", "setting": "[7]; 30 nM CART, without TTX, p<0.0001", "result": "7.8 ± 0.1", "unit": "mV"}]}]}
